Columns and labels:
[1] = Binding affinity to recombinant TetR(D) expressed in Escherichia coli RB791 by SPR analysis
[2] = Binding affinity to recombinant TetR(D) expressed in Escherichia coli RB791 by fuorescence assay

Row | Ka [2] [µM⁻¹] | Compound | Ka [1] [µM⁻¹]
1 | – | CN(C)[C@@H]1C(O)=C(C(N)=O)C(=O)[C@@]2(O)C(O)=C[C@@H]([C@]3(C)OC(=O)c4c(O)ccc(Cl)c43)C[C@@H]12 | 0.8
2 | 2.3 | CN(C)[C@@H]1C(O)=C(C(N)=O)C(=O)[C@@]2(O)C(O)=C3C(=O)c4c(O)ccc(Cl)c4[C@@](C)(O)[C@H]3C[C@@H]12 | 2.36

From ChEMBL document CHEMBL1806395, “Recognition of drug degradation products by target proteins: isotetracycline binding to Tet repressor” (J Med Chem, 2011)
